# Laboratory results published in ChEMBL document CHEMBL5316298, “Discovery of Amphiphilic Xanthohumol Derivatives as Membrane-Targeting Antimicrobials against Methicillin-Resistant Staphylococcus aureus” (J Med Chem, 2023).
# How the values were obtained:
# [1] = system: Staphylococcus aureus; assay: Antibacterial activity against methicillin-resistant Staphylococcus aureus clinical isolate 8 incubated for 16 to 18 hrs by CLSI-based microbroth dilution method; format: functional; conditions: time 16-18 hrs
# [2] = system: Staphylococcus aureus; assay: Antibacterial activity against methicillin-resistant Staphylococcus aureus clinical isolate 4 incubated for 16 to 18 hrs by CLSI-based microbroth dilution method; format: functional; conditions: time 16-18 hrs
# [3] = system: Staphylococcus aureus; assay: Antibacterial activity against methicillin-resistant Staphylococcus aureus clinical isolate 7 incubated for 16 to 18 hrs by CLSI-based microbroth dilution method; format: functional; conditions: time 16-18 hrs
# [4] = system: Staphylococcus aureus; assay: Antibacterial activity against methicillin-resistant Staphylococcus aureus clinical isolate 1 incubated for 16 to 18 hrs by CLSI-based microbroth dilution method; format: functional; conditions: time 16-18 hrs
# [5] = system: Staphylococcus aureus; assay: Antibacterial activity against methicillin-resistant Staphylococcus aureus clinical isolate 10 incubated for 16 to 18 hrs by CLSI-based microbroth dilution method; format: functional; conditions: time 16-18 hrs
# [6] = system: Staphylococcus aureus; assay: Antibacterial activity against methicillin-resistant Staphylococcus aureus clinical isolate 9 incubated for 16 to 18 hrs by CLSI-based microbroth dilution method; format: functional; conditions: time 16-18 hrs
# [7] = system: Staphylococcus aureus; assay: Antibacterial activity against methicillin-resistant Staphylococcus aureus clinical isolate 6 incubated for 16 to 18 hrs by CLSI-based microbroth dilution method; format: functional; conditions: time 16-18 hrs
# [8] = Hemolytic activity in sheep erythrocytes incubated for 1 hr by absorbance based analysis; format: toxicity, cell-based, Ovis aries, Erythrocyte
# [9] = system: Staphylococcus aureus; assay: Antibacterial activity against methicillin-resistant Staphylococcus aureus clinical isolate 3 incubated for 16 to 18 hrs by CLSI-based microbroth dilution method; format: functional; conditions: time 16-18 hrs
# [10] = system: Staphylococcus aureus; assay: Antibacterial activity against methicillin-resistant Staphylococcus aureus clinical isolate 5 incubated for 16 to 18 hrs by CLSI-based microbroth dilution method; format: functional; conditions: time 16-18 hrs
# [11] = system: Staphylococcus aureus; assay: Antibacterial activity against Staphylococcus aureus ATCC 29213 incubated for 16 to 18 hrs by CLSI-based microbroth dilution method; format: functional; conditions: time 16-18 hrs
# [12] = system: Staphylococcus aureus; assay: Antibacterial activity against methicillin-resistant Staphylococcus aureus clinical isolate 2 incubated for 16 to 18 hrs by CLSI-based microbroth dilution method; format: functional; conditions: time 16-18 hrs
SMILES,MIC [1] [µg/mL],MIC [2] [µg/mL],MIC [3] [µg/mL],MIC [4] [µg/mL],MIC [5] [µg/mL],MIC [6] [µg/mL],MIC [7] [µg/mL],HC50 at 1 h [8] [µg/mL],MIC [9] [µg/mL],MIC [10] [µg/mL],MIC [11] [µg/mL],MIC [12] [µg/mL]
COc1cc2c(c(O)c1C(=O)/C=C/c1ccc(OCCCCC[N+](C)(C)CC(=O)N(C(C)C)C(C)C)cc1)C=CC(C)(C)O2.[Br-],4,1,2,2,2,2,1,229,2,2,2,2
CCCCCNC(=O)C[N+](C)(C)CCCCOc1ccc(/C=C/C(=O)c2c(OC)cc3c(c2O)C=CC(C)(C)O3)cc1.[Br-],4,8,4,4,4,4,2,83.4,4,4,4,4
CCCCN(CCCC)C(=O)C[N+](C)(C)CCCCCOc1ccc(/C=C/C(=O)c2c(OC)cc3c(c2O)C=CC(C)(C)O3)cc1.[Br-],4,8,2,2,2,8,1,409,4,2,2,2
CCCNC(=O)C[N+](C)(C)CCCCOc1ccc(/C=C/C(=O)c2c(OC)cc3c(c2O)C=CC(C)(C)O3)cc1.[Br-],2,4,2,2,4,2,2,410,2,4,4,2
CCCCNC(=O)C[N+](C)(C)CCCOc1ccc(/C=C/C(=O)c2c(OC)cc3c(c2O)C=CC(C)(C)O3)cc1.[Br-],2,2,2,2,4,1,2,58.3,1,2,2,2
COc1cc2c(c(O)c1C(=O)/C=C/c1ccc(OCCC[N+](C)(C)CC(=O)N3CCSCC3)cc1)C=CC(C)(C)O2.[Br-],2,4,2,4,4,2,2,416,2,2,2,2
CCCCCCNC(=O)C[N+](C)(C)CCCCCOc1ccc(/C=C/C(=O)c2c(OC)cc3c(c2O)C=CC(C)(C)O3)cc1.[Br-],4,2,4,2,2,4,2,245,2,2,4,2
CCCCN(CCCC)C(=O)C[N+](C)(C)CCCCOc1ccc(/C=C/C(=O)c2c(OC)cc3c(c2O)C=CC(C)(C)O3)cc1.[Br-],4,2,4,1,2,1,1,466,1,2,2,2
COc1cc2c(c(O)c1C(=O)/C=C/c1ccc(OCCC[N+](C)(C)CC(=O)N(CC(C)C)CC(C)C)cc1)C=CC(C)(C)O2.[Br-],2,2,1,2,4,2,1,447,1,1,2,4
CCCCCCNC(=O)C[N+](C)(C)CCCCOc1ccc(/C=C/C(=O)c2c(OC)cc3c(c2O)C=CC(C)(C)O3)cc1.[Br-],4,8,4,2,2,4,1,938,2,2,2,2
COc1cc2c(c(O)c1C(=O)/C=C/c1ccc(OCCCCC[N+](C)(C)CC(=O)N3CCSCC3)cc1)C=CC(C)(C)O2.[Br-],4,4,4,8,1,1,2,210,4,4,4,4
CCCCCNC(=O)C[N+](C)(C)CCCOc1ccc(/C=C/C(=O)c2c(OC)cc3c(c2O)C=CC(C)(C)O3)cc1.[Br-],4,4,4,2,4,4,4,169,2,2,2,4
CCCCNC(=O)C[N+](C)(C)CCCCCOc1ccc(/C=C/C(=O)c2c(OC)cc3c(c2O)C=CC(C)(C)O3)cc1.[Br-],2,2,2,2,2,4,1,826,2,1,2,2
COc1cc2c(c(O)c1C(=O)/C=C/c1ccc(OCCCC[N+](C)(C)CC(=O)N(CC(C)C)CC(C)C)cc1)C=CC(C)(C)O2.[Br-],2,4,1,2,4,2,1,333,1,1,4,2
COc1cc2c(c(O)c1C(=O)/C=C/c1ccc(OCCC[N+](C)(C)CC(=O)N3CCOCC3)cc1)C=CC(C)(C)O2.[Br-],8,16,4,8,8,8,8,> 1280,8,8,8,8
CCCN(CCC)C(=O)C[N+](C)(C)CCCCCOc1ccc(/C=C/C(=O)c2c(OC)cc3c(c2O)C=CC(C)(C)O3)cc1.[Br-],2,2,2,4,2,1,1,436,2,2,2,4
